From ChEMBL document CHEMBL4840335, “Rational Design and Development of Novel CDK9 Inhibitors for the Treatment of Acute Myeloid Leukemia” (J Med Chem, 2021)
Active and inactive are the calls of the source. No cut-off for these calls is given here.

Columns and labels:
CDK9/cyclin T1 = CDK9/cyclin T1 (Homo sapiens, UniProt P50750); assay: Inhibition of CDK9/cyclin T1 (unknown origin) incubated for 2 hrs in presence of ATP by FRET based LANCE assay; type: protein-complex assay
[1] = target: Cyclin-dependent kinase 4 (Homo sapiens, UniProt P11802); assay: Inhibition of CDK4 (unknown origin)
[2] = target: Cyclin-dependent kinase 6 (Homo sapiens, UniProt Q00534); assay: Inhibition of CDK6 (unknown origin)
[3] = target: ALK tyrosine kinase receptor (Homo sapiens, UniProt Q9UM73); assay: Inhibition of ALK (unknown origin)
[4] = target: Discoidin domain-containing receptor 2 (Homo sapiens, UniProt Q16832); assay: Inhibition of DDR2 (unknown origin)
[5] = target: Fibroblast growth factor receptor 3 (Homo sapiens, UniProt P22607); assay: Inhibition of FGFR3 (unknown origin)
[6] = target: Fibroblast growth factor receptor 4 (Homo sapiens, UniProt P22455); assay: Inhibition of FGFR4 (unknown origin)
[7] = target: Vascular endothelial growth factor receptor 1 (Homo sapiens, UniProt P17948); assay: Inhibition of VEGFR1 (unknown origin)
[8] = target: Platelet-derived growth factor receptor beta (Homo sapiens, UniProt P09619); assay: Inhibition of PDGFRB (unknown origin)
[9] = target: Tyrosine-protein kinase ABL1 (Homo sapiens, UniProt P00519); assay: Inhibition of ABL (unknown origin)
[10] = target: Vascular endothelial growth factor receptor 2 (Homo sapiens, UniProt P35968); assay: Inhibition of KDR (unknown origin)
[11] = target: Serine/threonine-protein kinase Chk2 (Homo sapiens, UniProt O96017); assay: Inhibition of CHK2 (unknown origin)
[12] = Antiproliferative activity against human MINO cells assessed as reduction in cell proliferation measured after 3 to 7 days by MTS assay; type: functional, cell-based
JeKo-1 = assay: Antiproliferative activity against human JeKo-1 cells assessed as reduction in cell proliferation measured after 3 to 7 days by MTS assay; type: functional, cell-based
Raji = assay: Antiproliferative activity against human Raji cells assessed as reduction in cell proliferation measured after 3 to 7 days by MTS assay; type: functional, cell-based
TMD8 = assay: Antiproliferative activity against human TMD8 cells assessed as reduction in cell proliferation measured after 3 to 7 days by MTS assay; type: functional, cell-based
RPMI-8226 = assay: Antiproliferative activity against human RPMI-8226 cells assessed as reduction in cell proliferation measured after 3 to 7 days by MTS assay; type: functional, cell-based
HL-60 = assay: Antiproliferative activity against human HL-60 cells assessed as reduction in cell proliferation measured after 3 to 7 days by MTS assay; type: functional, cell-based
[13] = target: Cyclin-dependent kinase 9 (Homo sapiens) (UniProt P50750); assay: Inhibition of CDK9 in human MV4-11 cells assessed as reduction in RNAP2 phosphorylation at ser2 residues at 1 to 10 uM after 12 hrs by Western blot analysis; type: cell-based; conditions: dose 1-10 µM
[14] = target: Cyclin-dependent kinase 9 (Homo sapiens) (UniProt P50750); assay: Inhibition of CDK9 in human MV4-11 cells assessed as reduction in RNAP2 phosphorylation at ser5 residues at 1 to 10 uM after 12 hrs by Western blot analysis; type: cell-based; conditions: dose 1-10 µM
MV4-11 [15] = assay: Induction of apoptosis in human MV4-11 cells assessed as early apoptotic cells at 10 nM measured after 24 hrs by annexinV-FITC/propidium iodide staining based flow cytometry (reference value: 0.79 %); type: functional
MV4-11 [16] = assay: Induction of apoptosis in human MV4-11 cells assessed as necrotic cells at 10 nM measured after 24 hrs by annexinV-FITC/propidium iodide staining based flow cytometry (reference value: 1.03 %); type: functional
MV4-11 [17] = assay: Induction of apoptosis in human MV4-11 cells assessed as necrotic cells at 50 nM measured after 24 hrs by annexinV-FITC/propidium iodide staining based flow cytometry (reference value: 1.03 %); type: functional
[18] = Cmax in ICR mouse at 20 mg/kg, po measured up to 24 hrs; type: ADME, organism-based; design: route oral, dose 20 mg/kg, time <=24; conditions: in vivo
[19] = Observed AUC infinity in ICR mouse at 20 mg/kg, po measured up to 24 hrs; type: ADME, organism-based; design: route oral, dose 20 mg/kg, time <=24; conditions: in vivo
[20] = MRT in ICR mouse at 20 mg/kg, po measured up to 24 hrs; type: ADME, organism-based; conditions: in vivo
[21] = Oral bioavailability in ICR mouse at 20 mg/kg measured up to 24 hrs; type: ADME, organism-based; conditions: in vivo
[22] = AUClast in ICR mouse at 2 mg/kg, iv measured up to 24 hrs; type: ADME, organism-based; design: route intravenous, dose 2 mg/kg, time <=24; conditions: in vivo
[23] = Observed AUC infinity in ICR mouse at 2 mg/kg, iv measured up to 24 hrs; type: ADME, organism-based; design: route intravenous, dose 2 mg/kg, time <=24; conditions: in vivo
[24] = MRT in ICR mouse at 2 mg/kg, iv measured up to 24 hrs; type: ADME, organism-based; conditions: in vivo
[25] = Observed clearance in ICR mouse at 2 mg/kg, iv measured up to 24 hrs; type: ADME, organism-based; conditions: in vivo
MV4-11 [26] = assay: Antitumor activity against human MV4-11 cells xenografted in Nu/Nu mouse assessed as tumor growth suppression by measuring T/C ratio at 7.5 mg/kg, po administered for 21 consecutive days by digital caliper method relative to control; type: functional; conditions: time 21 day
MV4-11 [27] = assay: Antitumor activity against human MV4-11 cells xenografted in Nu/Nu mouse assessed as change in tumor volume at 7.5 mg/kg, po administered for 21 consecutive days by digital caliper method and measured on day 22 (reference value: 127 +/- 16 mm3); type: functional; conditions: time 22 day

Cyclin-dependent kinase 9 (Homo sapiens), sequence (P50750 whole entry): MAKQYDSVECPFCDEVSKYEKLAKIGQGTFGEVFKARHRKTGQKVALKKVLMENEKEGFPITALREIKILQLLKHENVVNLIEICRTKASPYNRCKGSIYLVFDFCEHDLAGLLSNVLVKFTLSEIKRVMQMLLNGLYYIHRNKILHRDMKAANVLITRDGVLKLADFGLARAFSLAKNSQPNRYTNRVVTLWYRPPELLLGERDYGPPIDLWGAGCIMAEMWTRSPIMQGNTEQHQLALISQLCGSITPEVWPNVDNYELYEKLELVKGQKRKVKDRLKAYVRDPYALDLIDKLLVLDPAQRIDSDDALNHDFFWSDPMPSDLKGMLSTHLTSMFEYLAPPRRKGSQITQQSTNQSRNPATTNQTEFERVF
ALK tyrosine kinase receptor, sequence (Q9UM73 whole entry, the tested form may be a part): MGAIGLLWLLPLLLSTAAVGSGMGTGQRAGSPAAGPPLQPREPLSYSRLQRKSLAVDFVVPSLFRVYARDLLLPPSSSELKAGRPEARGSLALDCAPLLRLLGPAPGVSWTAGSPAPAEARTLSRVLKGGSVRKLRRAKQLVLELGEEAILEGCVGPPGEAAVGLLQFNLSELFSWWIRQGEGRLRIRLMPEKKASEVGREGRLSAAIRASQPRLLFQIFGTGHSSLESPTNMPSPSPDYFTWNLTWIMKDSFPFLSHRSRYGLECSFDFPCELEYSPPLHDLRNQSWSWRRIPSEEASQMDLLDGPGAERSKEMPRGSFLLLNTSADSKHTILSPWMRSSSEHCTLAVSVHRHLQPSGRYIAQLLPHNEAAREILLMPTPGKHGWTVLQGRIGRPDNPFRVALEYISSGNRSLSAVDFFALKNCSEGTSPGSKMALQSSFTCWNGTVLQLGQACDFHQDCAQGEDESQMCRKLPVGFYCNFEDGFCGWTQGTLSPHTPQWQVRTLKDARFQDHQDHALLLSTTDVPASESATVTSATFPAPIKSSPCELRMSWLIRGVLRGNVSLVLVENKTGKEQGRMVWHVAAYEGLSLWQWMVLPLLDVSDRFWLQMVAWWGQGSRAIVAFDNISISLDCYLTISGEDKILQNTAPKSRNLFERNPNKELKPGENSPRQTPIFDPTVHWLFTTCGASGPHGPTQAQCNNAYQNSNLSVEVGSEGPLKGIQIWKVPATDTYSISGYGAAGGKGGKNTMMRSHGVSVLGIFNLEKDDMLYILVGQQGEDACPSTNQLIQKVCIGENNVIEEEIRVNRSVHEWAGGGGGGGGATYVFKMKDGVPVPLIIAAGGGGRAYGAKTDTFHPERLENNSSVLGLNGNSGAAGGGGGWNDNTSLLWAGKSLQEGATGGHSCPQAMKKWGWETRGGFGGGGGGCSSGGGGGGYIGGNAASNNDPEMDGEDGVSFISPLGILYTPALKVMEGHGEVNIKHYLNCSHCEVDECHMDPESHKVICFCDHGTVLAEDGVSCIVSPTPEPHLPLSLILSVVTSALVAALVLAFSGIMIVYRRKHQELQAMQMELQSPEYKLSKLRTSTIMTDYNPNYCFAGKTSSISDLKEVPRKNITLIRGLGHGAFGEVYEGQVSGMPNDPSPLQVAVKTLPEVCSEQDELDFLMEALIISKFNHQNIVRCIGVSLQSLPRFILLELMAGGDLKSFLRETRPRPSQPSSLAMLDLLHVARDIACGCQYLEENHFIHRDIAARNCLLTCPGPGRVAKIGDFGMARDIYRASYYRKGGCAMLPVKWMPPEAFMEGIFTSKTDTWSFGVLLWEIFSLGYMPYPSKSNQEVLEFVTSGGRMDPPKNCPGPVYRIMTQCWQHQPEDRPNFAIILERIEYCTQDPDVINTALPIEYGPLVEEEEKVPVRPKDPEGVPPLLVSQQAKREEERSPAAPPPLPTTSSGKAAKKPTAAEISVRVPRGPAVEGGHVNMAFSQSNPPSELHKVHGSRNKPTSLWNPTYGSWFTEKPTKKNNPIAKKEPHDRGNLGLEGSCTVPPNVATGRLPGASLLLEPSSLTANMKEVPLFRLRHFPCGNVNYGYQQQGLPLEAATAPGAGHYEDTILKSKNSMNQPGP
Discoidin domain-containing receptor 2, sequence (Q16832 whole entry, the tested form may be a part): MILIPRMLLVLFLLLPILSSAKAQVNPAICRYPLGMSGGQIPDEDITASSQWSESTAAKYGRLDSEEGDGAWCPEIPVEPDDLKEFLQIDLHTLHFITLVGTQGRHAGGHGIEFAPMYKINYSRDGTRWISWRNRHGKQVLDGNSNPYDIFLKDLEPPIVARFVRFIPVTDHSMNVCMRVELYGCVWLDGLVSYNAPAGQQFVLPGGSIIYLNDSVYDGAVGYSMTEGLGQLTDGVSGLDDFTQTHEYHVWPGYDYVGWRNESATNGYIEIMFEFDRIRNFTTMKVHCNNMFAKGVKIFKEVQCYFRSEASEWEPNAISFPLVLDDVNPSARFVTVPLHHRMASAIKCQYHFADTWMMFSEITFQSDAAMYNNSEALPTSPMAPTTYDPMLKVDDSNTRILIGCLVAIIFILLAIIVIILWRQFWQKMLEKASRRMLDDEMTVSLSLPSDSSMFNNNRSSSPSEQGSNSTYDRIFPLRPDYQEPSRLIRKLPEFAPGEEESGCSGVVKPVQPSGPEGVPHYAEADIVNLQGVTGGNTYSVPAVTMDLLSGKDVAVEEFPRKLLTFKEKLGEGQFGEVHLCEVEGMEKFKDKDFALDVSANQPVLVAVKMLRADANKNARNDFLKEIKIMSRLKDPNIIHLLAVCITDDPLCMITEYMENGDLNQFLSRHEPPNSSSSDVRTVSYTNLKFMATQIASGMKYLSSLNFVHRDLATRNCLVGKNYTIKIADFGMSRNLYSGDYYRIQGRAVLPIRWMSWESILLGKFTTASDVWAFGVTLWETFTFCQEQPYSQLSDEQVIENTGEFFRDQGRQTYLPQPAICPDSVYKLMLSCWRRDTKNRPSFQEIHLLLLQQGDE
CDK9/cyclin T1, sequence (O60563 whole entry): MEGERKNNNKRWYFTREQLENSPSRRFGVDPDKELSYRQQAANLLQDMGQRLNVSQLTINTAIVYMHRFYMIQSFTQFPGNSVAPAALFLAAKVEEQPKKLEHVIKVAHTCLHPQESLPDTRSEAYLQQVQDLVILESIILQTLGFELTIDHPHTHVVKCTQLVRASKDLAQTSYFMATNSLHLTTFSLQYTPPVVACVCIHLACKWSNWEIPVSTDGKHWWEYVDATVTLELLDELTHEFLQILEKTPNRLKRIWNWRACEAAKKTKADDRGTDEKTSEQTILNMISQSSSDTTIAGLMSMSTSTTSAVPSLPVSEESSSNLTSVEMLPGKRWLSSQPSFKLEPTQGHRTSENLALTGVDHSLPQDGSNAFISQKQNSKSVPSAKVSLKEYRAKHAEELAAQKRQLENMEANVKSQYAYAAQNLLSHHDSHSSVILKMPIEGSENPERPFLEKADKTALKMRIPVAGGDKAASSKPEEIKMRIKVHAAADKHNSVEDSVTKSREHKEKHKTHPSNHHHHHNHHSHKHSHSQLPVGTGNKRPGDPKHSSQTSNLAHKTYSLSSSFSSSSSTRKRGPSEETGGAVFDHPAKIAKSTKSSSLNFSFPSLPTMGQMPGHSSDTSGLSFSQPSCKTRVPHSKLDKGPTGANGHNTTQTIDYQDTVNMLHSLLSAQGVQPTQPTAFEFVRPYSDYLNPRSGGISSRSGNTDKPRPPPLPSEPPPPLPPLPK
CDK9/cyclin T1, sequence (P50750 whole entry): as the sequence (P50750 whole entry) above
Serine/threonine-protein kinase Chk2, sequence (O96017 whole entry): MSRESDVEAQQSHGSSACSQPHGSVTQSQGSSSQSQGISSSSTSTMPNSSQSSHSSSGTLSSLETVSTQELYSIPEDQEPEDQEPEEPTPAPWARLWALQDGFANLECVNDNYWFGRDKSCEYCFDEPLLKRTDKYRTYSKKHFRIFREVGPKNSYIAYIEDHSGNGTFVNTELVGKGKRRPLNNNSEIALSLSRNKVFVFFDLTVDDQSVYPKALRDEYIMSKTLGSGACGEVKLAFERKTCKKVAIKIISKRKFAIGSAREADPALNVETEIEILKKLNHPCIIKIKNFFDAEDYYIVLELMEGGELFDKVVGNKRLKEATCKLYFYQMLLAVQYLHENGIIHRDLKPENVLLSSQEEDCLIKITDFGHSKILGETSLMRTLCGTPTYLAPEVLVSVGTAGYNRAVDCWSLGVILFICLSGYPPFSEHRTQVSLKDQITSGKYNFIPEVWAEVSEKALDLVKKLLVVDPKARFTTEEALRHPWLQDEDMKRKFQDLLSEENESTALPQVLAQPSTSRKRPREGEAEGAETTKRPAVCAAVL
Cyclin-dependent kinase 6, sequence (Q00534 whole entry): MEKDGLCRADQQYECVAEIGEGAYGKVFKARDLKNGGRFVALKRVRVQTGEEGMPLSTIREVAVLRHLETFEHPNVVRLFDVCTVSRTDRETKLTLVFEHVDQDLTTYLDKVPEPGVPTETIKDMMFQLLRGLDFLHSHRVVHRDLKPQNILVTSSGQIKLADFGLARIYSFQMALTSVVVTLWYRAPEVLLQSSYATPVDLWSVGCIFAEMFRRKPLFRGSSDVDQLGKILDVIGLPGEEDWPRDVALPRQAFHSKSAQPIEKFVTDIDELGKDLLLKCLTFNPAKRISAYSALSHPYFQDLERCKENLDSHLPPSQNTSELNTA
Cyclin-dependent kinase 4, sequence (P11802 whole entry): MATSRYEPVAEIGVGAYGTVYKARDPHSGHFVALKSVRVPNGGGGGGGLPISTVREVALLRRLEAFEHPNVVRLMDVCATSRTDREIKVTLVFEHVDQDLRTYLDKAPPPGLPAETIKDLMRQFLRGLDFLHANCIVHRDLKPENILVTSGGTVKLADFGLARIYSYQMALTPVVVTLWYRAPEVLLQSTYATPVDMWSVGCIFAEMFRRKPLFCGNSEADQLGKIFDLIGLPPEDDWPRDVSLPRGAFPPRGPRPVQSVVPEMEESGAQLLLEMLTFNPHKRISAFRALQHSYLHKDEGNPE

`Cc1n[nH]c2ccc(-c3cc(N[C@@H](CO)c4ccccc4)cnc3Cl)cc12` gave an IC50 (CDK9/cyclin T1) of 5.41 nM, an IC50 [1] greater than 1000 nM and an IC50 [2] greater than 1000 nM. For the same compound, the IC50 [3] was greater than 1000 nM, the IC50 [4] was greater than 1000 nM and the IC50 [5] was greater than 1000 nM. It also gave an IC50 [6] greater than 1000 nM, an IC50 [7] greater than 1000 nM and an IC50 [8] greater than 1000 nM. It also gave an IC50 [9] greater than 1000 nM, an IC50 [10] greater than 1000 nM and an IC50 [11] greater than 1000 nM. The IC50 [12] was 8.4 nM, the IC50 (JeKo-1) was 46 nM and the IC50 (Raji) was 37 nM. It also gave an IC50 (TMD8) of 46 nM, an IC50 (RPMI-8226) of 5.4 nM and an IC50 (HL-60) of 44 nM. The inhibition [13] was “inactive”, the inhibition [14] was “inactive” and the Activity (MV4-11 [15]) was 1.76%. For the same compound, the Activity (MV4-11 [16]) was 0.84%, the Activity (MV4-11 [17]) was 3.59% and the Cmax [18] was 1570 ng/mL. For the same compound, the AUC(0-inf) [19] was 1880 ng·h/mL, the MRT [20] was 5.99 h and the bioavailability [21] was 33.7%. For the same compound, the AUC(0-t) at 24 h [22] was 553 ng·h/mL, the AUC(0-inf) [23] was 558 ng·h/mL and the MRT [24] was 0.73 h. It also gave a clearance [25] of 60 mL/min/kg, a T/C (MV4-11 [26]) of 27.8% and an Activity (MV4-11 [27]) of 371 mm3.
